Values after ≈ are worked out from the molar mass of the structure shown.
Key:
[1] = test system: Klebsiella pneumoniae; assay: Antibacterial activity against Klebsiella pneumoniae IID5209 after 18 hrs by agar dilution method; type: functional
[2] = test system: Escherichia coli; assay: Antibacterial activity against Escherichia coli NIHJ JC2 after 18 hrs by agar dilution method; type: functional; settings: NIHJ JC2, 18 h
[3] = test system: Enterococcus faecalis; assay: Antibacterial activity against Enterococcus faecalis IID682 after 18 hrs by agar dilution method; type: functional
[4] = test system: Streptococcus pyogenes; assay: Antibacterial activity against Streptococcus pyogenes IID692 after 18 hrs by agar dilution method; type: functional
[5] = test system: Staphylococcus aureus; assay: Antibacterial activity against Staphylococcus aureus Smith after 18 hrs by agar dilution method; type: functional
[6] = test system: Haemophilus influenzae; assay: Antibacterial activity against Haemophilus influenzae IID983 after 18 hrs by agar dilution method; type: functional
[7] = test system: Streptococcus pneumoniae; assay: Antibacterial activity against Streptococcus pneumoniae type 3 after 18 hrs by agar dilution method; type: functional
[8] = test system: Pseudomonas aeruginosa; assay: Antibacterial activity against Pseudomonas aeruginosa IID1210 after 18 hrs by agar dilution method; type: functional
[9] = test system: Staphylococcus aureus; assay: Antibacterial activity against quinoline-resistant Staphylococcus aureus OITI MR1-1002 isolate after 18 hrs by agar dilution method; type: functional
[10] = test system: Streptococcus pneumoniae; assay: Antibacterial activity against quinoline-resistant Streptococcus pneumoniae no.55 isolate after 18 hrs by agar dilution method; type: functional
[11] = test system: Enterococcus faecalis; assay: Antibacterial activity against quinoline-resistant Enterococcus faecalis No.15 isolate after 18 hrs by agar dilution method; type: functional
[12] = test system: Enterococcus faecalis; assay: Antibacterial activity against vancomycin-resistant Enterococcus faecalis KU1856 after 18 hrs by agar dilution method; type: functional
[13] = test system: Enterococcus faecalis; assay: Antibacterial activity against vancomycin-resistant Enterococcus faecalis KU1866 after 18 hrs by agar dilution method; type: functional
[14] = test system: Mus musculus; assay: Toxicity in ICR mouse assessed as mortality administered as single dose at 200 mg/kg, iv after 7 days; type: organism-based; parameters: dose 200 mg/kg, route intravenous; settings: in vivo, 168 h
[15] = test system: Mus musculus; assay: Toxicity in intracerebroventricularly dosed ICR mouse assessed as induction of convulsion after 2 hrs in absence of fenbufen; type: organism-based; settings: in vivo, icv_or_intrathecal
[16] = test system: Mus musculus; assay: Toxicity in intracerebroventricularly dosed ICR mouse assessed as induction of convulsion after 2 hrs in presence of fenbufen; type: organism-based; settings: in vivo, icv_or_intrathecal
[17] = test system: Mus musculus; assay: Phototoxicity in orally dosed ICR mouse assessed as skin erythema after 72 hrs; type: organism-based; settings: in vivo, po
[18] = test system: Mus musculus; assay: Toxicity in ICR mouse assessed as mortality administered as single dose at 100 mg/kg, iv after 7 days; type: organism-based; parameters: dose 100 mg/kg, route intravenous; settings: in vivo, 168 h
[19] = biological target: T1, DNA gyrase (Staphylococcus aureus, UniProt P0A0K8+P20831); assay: Inhibition of Staphylococcus aureus MS5935 wild type DNA gyrase-mediated supercoiling activity; type: protein-complex assay
[20] = biological target: T1, DNA gyrase; assay: Inhibition of quinoline-resistant Staphylococcus aureus MS5935 DNA gyrase-mediated supercoiling activity; type: protein-complex assay
[21] = Inhibition of Staphylococcus aureus MS5935 wild type topoisomerase 4-mediated decatenation activity
[22] = Inhibition of quinoline-resistant Staphylococcus aureus MS5935 topoisomerase 4-mediated decatenation activity
[23] = test system: Staphylococcus aureus; assay: Antibacterial activity against quinoline-resistant wild type Staphylococcus aureus MS5935 after 18 hrs by agar dilution method; type: functional
[24] = test system: Staphylococcus aureus; assay: Antibacterial activity against quinoline-resistant Staphylococcus aureus MS5935 containing single grlA mutation after 18 hrs by agar dilution method; type: functional
[25] = test system: Staphylococcus aureus; assay: Antibacterial activity against quinoline-resistant Staphylococcus aureus MS5935 containing single grlA and single gyrA mutation after 18 hrs by agar dilution method; type: functional
[26] = test system: Staphylococcus aureus; assay: Antibacterial activity against quinoline-resistant Staphylococcus aureus MS5935 containing double grlA and single gyrA mutation after 18 hrs by agar dilution method; type: functional
[27] = test system: Staphylococcus aureus; assay: Antibacterial activity against quinoline-resistant Staphylococcus aureus MS5935 containing double grlA and double gyrA mutation after 18 hrs by agar dilution method; type: functional
[28] = test system: Staphylococcus aureus; assay: Antibacterial activity against Staphylococcus aureus Smith infected in subcutaneously dosed ICR mouse administered 1 hr after bacterial challenge measured at 7 days post infection; type: functional; settings: sc
[29] = test system: Staphylococcus aureus; assay: Antibacterial activity against Staphylococcus aureus Smith infected in po dosed ICR mouse administered 1 hr after bacterial challenge measured at 7 days post infection; type: functional
[30] = test system: Streptococcus pneumoniae; assay: Antibacterial activity against Streptococcus pneumoniae type 3 infected in subcutaneously dosed ICR mouse administered 1 hr after bacterial challenge measured at 7 days post infection; type: functional; settings: sc
[31] = test system: Streptococcus pneumoniae; assay: Antibacterial activity against Streptococcus pneumoniae type 3 infected in po dosed ICR mouse administered 1 hr after bacterial challenge measured at 7 days post infection; type: functional

T1 sequence (P0A0K8 whole entry): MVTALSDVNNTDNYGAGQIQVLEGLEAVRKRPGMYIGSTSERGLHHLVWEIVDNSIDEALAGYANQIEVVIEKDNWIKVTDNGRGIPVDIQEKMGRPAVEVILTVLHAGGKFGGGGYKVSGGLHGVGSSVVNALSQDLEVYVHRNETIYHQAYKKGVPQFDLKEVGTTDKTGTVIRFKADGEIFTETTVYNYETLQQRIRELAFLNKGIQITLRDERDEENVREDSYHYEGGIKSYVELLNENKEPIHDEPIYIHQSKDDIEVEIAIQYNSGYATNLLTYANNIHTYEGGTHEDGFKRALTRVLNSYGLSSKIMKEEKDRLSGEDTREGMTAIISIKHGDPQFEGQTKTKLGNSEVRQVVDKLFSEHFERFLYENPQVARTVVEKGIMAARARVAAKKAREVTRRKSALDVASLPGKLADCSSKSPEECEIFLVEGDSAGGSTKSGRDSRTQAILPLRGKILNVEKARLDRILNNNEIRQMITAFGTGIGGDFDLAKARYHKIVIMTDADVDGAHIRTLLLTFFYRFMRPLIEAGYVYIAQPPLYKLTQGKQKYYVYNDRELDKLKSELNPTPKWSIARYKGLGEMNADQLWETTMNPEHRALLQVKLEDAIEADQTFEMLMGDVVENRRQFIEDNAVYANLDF
T1 sequence (P20831 whole entry): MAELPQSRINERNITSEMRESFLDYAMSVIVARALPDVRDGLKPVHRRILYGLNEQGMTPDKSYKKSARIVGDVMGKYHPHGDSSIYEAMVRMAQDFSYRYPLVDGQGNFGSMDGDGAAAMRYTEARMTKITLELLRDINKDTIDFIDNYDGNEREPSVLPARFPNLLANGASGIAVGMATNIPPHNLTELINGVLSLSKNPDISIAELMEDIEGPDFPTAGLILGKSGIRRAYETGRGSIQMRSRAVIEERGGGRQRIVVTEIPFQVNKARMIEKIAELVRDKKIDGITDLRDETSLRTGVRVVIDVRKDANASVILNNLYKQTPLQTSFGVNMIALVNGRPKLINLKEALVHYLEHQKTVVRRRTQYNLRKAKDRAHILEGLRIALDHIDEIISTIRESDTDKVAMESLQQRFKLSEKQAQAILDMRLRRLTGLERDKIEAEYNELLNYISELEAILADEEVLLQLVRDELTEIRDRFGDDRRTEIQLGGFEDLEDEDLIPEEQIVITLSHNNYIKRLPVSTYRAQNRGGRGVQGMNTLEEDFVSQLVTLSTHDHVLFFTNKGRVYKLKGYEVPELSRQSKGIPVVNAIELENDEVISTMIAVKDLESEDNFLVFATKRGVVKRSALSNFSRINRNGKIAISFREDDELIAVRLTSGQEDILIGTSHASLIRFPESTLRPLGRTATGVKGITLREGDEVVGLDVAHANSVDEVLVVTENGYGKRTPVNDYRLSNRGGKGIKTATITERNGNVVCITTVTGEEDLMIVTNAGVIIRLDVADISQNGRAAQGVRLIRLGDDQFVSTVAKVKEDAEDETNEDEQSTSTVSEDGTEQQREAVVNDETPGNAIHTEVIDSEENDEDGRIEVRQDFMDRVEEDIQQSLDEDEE

SMILES	MIC [1] [µg/mL]	MIC [2] [µg/mL]	MIC [3] [µg/mL]	MIC [4] [µg/mL]	MIC [5] [µg/mL]	MIC [6] [µg/mL]	MIC [7] [µg/mL]	MIC [8] [µg/mL]	MIC [9] [µg/mL]	MIC [10] [µg/mL]	MIC [11] [µg/mL]	MIC [12] [µg/mL]	MIC [13] [µg/mL]	Activity [14]	Activity [15] [µg]	Activity [16] [µg]	Activity [17]	IC50 [21] [µg/mL]	IC50 [22] [µg/mL]	MIC [23] [µg/mL]	further results
C[C@@H]1CN(c2c(F)cc3c(=O)c(C(=O)O)cn4c3c2OC[C@@H]4CF)C[C@@H]1CNC1CC1	0.063 (≈ 0.145 µM)	0.016 (≈ 0.0369 µM)	0.063 (≈ 0.145 µM)	0.031 (≈ 0.0715 µM)	0.008 (≈ 0.0185 µM)	0.004 (≈ 0.00923 µM)	0.016 (≈ 0.0369 µM)	2 (≈ 4.61 µM)	0.5 (≈ 1.15 µM)	0.125 (≈ 0.288 µM)	1 (≈ 2.31 µM)	1 (≈ 2.31 µM)	1 (≈ 2.31 µM)	Toxic	20	10	Non-toxic				
O=C(O)c1cn2c3c(c(N4C[C@H](CNC5CC5)[C@H](F)C4)c(F)cc3c1=O)OC[C@@H]2CF	0.031 (≈ 0.0709 µM)	0.008 (≈ 0.0183 µM)	0.063 (≈ 0.144 µM)	0.031 (≈ 0.0709 µM)	0.008 (≈ 0.0183 µM)	0.004 (≈ 0.00914 µM)	0.016 (≈ 0.0366 µM)	2 (≈ 4.57 µM)	1 (≈ 2.29 µM)	0.25 (≈ 0.572 µM)	1 (≈ 2.29 µM)	0.5 (≈ 1.14 µM)	0.5 (≈ 1.14 µM)	Non-toxic	> 40	> 40	Non-toxic	1.27 (≈ 2.9 µM)	7 (≈ 16 µM)	0.016 (≈ 0.0366 µM)	Activity [18]: Non-toxic; IC50 [19]: 2.42 µM; IC50 [20]: 31.1 µM; MIC [24]: 0.031 µg/mL (≈ 0.0709 µM); MIC [25]: 0.25 µg/mL (≈ 0.572 µM); MIC [26]: 0.5 µg/mL (≈ 1.14 µM); MIC [27]: 4 µg/mL (≈ 9.14 µM); ED50 [28]: 0.12 mg/kg; ED50 [29]: 0.5 mg/kg; ED50 [30]: 2.9 mg/kg; ED50 [31]: 4 mg/kg
C[C@H]1COc2c(N3CCN(C)CC3)c(F)cc3c(=O)c(C(=O)O)cn1c23.C[C@H]1COc2c(N3CCN(C)CC3)c(F)cc3c(=O)c(C(=O)O)cn1c23.O [LEVOFLOXACIN]	0.016	≤ 0.001	1	0.5	0.125	0.008		0.5	> 128		64	32	32					5.44	319	0.125	MIC [24]: 0.5 µg/mL; MIC [25]: 8 µg/mL; MIC [26]: 32 µg/mL; MIC [27]: > 128 µg/mL
NC1CCN(c2c(F)cc3c(=O)c(C(=O)O)cn(C4CC4)c3c2Cl)C1 (configuration not stated) [CLINAFLOXACIN]	0.004 (≈ 0.0109 µM)	0.002 (≈ 0.00547 µM)	0.063 (≈ 0.172 µM)	0.063 (≈ 0.172 µM)	0.016 (≈ 0.0437 µM)	≤ 0.001	0.031 (≈ 0.0847 µM)	0.125 (≈ 0.342 µM)	8 (≈ 21.9 µM)	0.5 (≈ 1.37 µM)	8 (≈ 21.9 µM)	2 (≈ 5.47 µM)	4 (≈ 10.9 µM)	Non-toxic	10	5	Toxic	1.89 (≈ 5.17 µM)	13.9 (≈ 38 µM)	0.016 (≈ 0.0437 µM)	Activity [18]: Non-toxic; IC50 [19]: 3.14 µM; IC50 [20]: 44.3 µM; MIC [24]: 0.063 µg/mL (≈ 0.172 µM); MIC [25]: 0.5 µg/mL (≈ 1.37 µM); MIC [26]: 2 µg/mL (≈ 5.47 µM); MIC [27]: 8 µg/mL (≈ 21.9 µM); ED50 [28]: 0.35 mg/kg; ED50 [29]: 2.1 mg/kg; ED50 [30]: 45 mg/kg; ED50 [31]: 15 mg/kg

— ChEMBL document CHEMBL1150336, “Synthesis and antibacterial activity of novel pyrido[1,2,3-de][1,4]benzoxazine-6-carboxylic acid derivatives carrying the 3-cyclopropylaminomethyl-4-substituted-1-pyrrolidinyl group as a C-10 substituent” (J Med Chem, 2008)
